The values below come from ChEMBL document CHEMBL3232934, “Synthesis of thio-heterocyclic analogues from Baylis-Hillman bromides as potent cyclooxygenase-2 inhibitors” (Bioorg Med Chem Lett, 2014).

The target of test [1] is T1, Prostaglandin G/H synthase 2 (Homo sapiens) (UniProt P35354).
T1 sequence (whole entry): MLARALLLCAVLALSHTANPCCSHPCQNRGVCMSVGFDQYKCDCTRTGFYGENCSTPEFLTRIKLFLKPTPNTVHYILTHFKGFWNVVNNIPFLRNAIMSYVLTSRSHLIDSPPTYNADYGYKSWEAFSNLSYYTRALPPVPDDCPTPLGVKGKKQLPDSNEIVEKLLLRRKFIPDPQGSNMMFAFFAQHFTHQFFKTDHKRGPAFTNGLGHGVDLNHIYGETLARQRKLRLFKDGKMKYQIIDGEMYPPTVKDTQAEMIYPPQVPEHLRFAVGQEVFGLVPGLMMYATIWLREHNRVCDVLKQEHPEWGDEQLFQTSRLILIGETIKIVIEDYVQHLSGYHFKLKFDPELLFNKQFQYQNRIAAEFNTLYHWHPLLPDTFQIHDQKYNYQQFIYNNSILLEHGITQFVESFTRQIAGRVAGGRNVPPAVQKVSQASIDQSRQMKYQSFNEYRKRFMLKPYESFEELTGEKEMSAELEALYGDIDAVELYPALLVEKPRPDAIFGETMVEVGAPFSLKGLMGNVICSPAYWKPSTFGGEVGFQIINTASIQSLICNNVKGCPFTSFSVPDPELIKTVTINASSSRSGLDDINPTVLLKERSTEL
Conditions: at 100 µM.
Description: Inhibition of COX2 (unknown origin) at 100 uM by colorimetric method

Test [2] deals with T2, Prostaglandin G/H synthase 2 (Homo sapiens, UniProt P35354).
T2 sequence (P35354 whole entry): T1 sequence (whole entry)
Briefly: Inhibition of COX2 (unknown origin) by colorimetric method.

Test [3] deals with Prostaglandin G/H synthase 1 (Homo sapiens) (UniProt P23219). Conditions: at 100 µM.
Sequence of Prostaglandin G/H synthase 1 (Homo sapiens) (P23219 whole entry): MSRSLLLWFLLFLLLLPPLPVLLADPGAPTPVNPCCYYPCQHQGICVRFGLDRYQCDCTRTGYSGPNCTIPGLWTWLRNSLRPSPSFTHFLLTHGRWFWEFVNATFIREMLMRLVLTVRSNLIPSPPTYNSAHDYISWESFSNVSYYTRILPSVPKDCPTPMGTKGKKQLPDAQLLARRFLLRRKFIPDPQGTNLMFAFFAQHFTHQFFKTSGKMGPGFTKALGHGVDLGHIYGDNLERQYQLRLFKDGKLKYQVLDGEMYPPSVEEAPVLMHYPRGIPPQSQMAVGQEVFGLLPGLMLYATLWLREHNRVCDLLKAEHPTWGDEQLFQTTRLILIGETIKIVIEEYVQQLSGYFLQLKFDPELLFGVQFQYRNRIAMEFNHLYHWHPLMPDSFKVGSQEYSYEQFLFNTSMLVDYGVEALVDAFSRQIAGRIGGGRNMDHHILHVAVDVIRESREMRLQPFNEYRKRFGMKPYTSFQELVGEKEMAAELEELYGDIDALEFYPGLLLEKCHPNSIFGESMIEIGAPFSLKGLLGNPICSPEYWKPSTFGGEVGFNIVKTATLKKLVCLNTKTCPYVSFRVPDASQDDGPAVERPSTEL
Description: Inhibition of COX1 (unknown origin) at 100 uM by colorimetric method

`COC(=O)/C(=C/c1ccc2ccccc2c1)CSc1nc2ccccc2s1`: the inhibition in test [1] stood at 75.1%; in test [3], 28.8%. Half-maximal inhibition in test [2] (IC50) required 2.93 µM.

As for `COC(=O)/C(=C/c1ccc(C(F)(F)F)cc1)CSc1nc2ccccc2s1`, the inhibition was found to be 77.5% in test [1] and 51.4% in test [3].

Regarding `COC(=O)/C(=C/c1ccc(F)cc1)CSc1nc2ccccc2o1`, the figures for the inhibition in test [1] and in test [3] were 72% and 47.8%, respectively.

For the molecule `COC(=O)/C(=C/c1ccc2ccccc2c1)CSc1nc2ccccc2o1`, the inhibition in test [1] turned out to be 78.4%; in test [3], 1%. The IC50 in test [2] came out at 4.34 µM.

Regarding `COC(=O)/C(=C/c1ccc(Cl)cc1)CSc1nc(C)cc(C)n1`, the inhibition in test [1] is 53.5%; in test [3], 50.7%.

As to `CCOC(=O)/C(=C/c1ccc(Br)cc1)CSc1nc2ccccc2o1`, the inhibition in test [1] is 64.7%; in test [3], 54.3%.

For the molecule `CCc1ccc(/C=C(\CSc2nncn2C)C(=O)OC)cc1`, the inhibition in test [1] amounted to 62.4%; in test [3], 57.2%.

On to `CCOC(=O)/C(=C/c1cccc(F)c1)CSc1nncn1C`, for which the figures for the inhibition in test [1] and in test [3] were 78.6% and 20.8%, respectively. Moreover, it took 3.88 µM to reach half-maximal inhibition in test [2] (IC50).

On to `COC(=O)/C(=C/c1ccc(OC)cc1)CSc1nc(C)cc(C)n1`, for which the inhibition in test [1] amounted to 80.2%; in test [3] it was 65.3%.

Consider `CCOC(=O)/C(=C/c1ccc(C(C)C)cc1)CSc1nc(C)cc(C)n1`, for which the inhibition in test [1] worked out at 77.4%; in test [3], 44.1%.

Turning to `COC(=O)/C(=C/c1ccc(OC)cc1)CSc1nc2ccccc2o1`, the figures for the inhibition in test [1] and in test [3] were 77.1% and 2%, respectively. The concentration for half-maximal inhibition (IC50) in test [2] was found to be 4.76 µM.

For `COC(=O)/C(=C/c1ccc(C(F)(F)F)cc1)CSc1nc2ccccc2o1`, the inhibition in test [1] was 81.9%; in test [3], 39%. For the same molecule, the IC50 in test [2] is 2.95 µM.

In the case of `CCOC(=O)/C(=C/c1ccc(C(C)C)cc1)CSc1nc2ccccc2o1`, the inhibition in test [1] is 81%; in test [3], 47%.

Turning to `CCOC(=O)/C(=C/c1cccc(Cl)c1)CSc1nc2ccccc2o1`, the inhibition in test [1] came to 76.7%; in test [3] it was 50%.

As for `CCOC(=O)/C(=C/c1cccc(Cl)c1)CSc1nc(C)cc(C)n1`, the inhibition worked out at 78.6% in test [1] and 24.4% in test [3]. Also, the IC50 in test [2] turned out to be 5.88 µM.

As for `COC(=O)/C(=C/c1ccc(F)cc1)CSc1nc(C)cc(C)n1`, the figures for the inhibition in test [1] and in test [3] were 71% and 50.7%, respectively.

As to `CCOC(=O)/C(=C/c1ccc(CC)cc1)CSc1nc(C)cc(C)n1`, the inhibition in test [1] was 76.5%; in test [3], 55.1%.

On to `COC(=O)/C(=C/c1ccc(Cl)cc1)CSc1nc2ccccc2o1`, for which the inhibition in test [1] turned out to be 74.8%; in test [3], 42.7%.

For the molecule `COC(=O)/C(=C/c1ccc2ccccc2c1)CSc1nc(C)cc(C)n1`, the inhibition in test [1] amounted to 73.5%; in test [3], 46.3%.

With `CCOC(=O)/C(=C/c1ccc(Br)cc1)CSc1nc(C)cc(C)n1`, the results for the inhibition in test [1] and in test [3] were 78.5% and 38.3%, respectively. This molecule gave an IC50 in test [2] of 3.17 µM.
